Experimental findings from patent US9776979B2, “EBI2 modulators” (Sanford-Burnham Medical Research Institute, priority 2013, dated 2017) are described below.

Chain of EBI2 (P32249 whole entry): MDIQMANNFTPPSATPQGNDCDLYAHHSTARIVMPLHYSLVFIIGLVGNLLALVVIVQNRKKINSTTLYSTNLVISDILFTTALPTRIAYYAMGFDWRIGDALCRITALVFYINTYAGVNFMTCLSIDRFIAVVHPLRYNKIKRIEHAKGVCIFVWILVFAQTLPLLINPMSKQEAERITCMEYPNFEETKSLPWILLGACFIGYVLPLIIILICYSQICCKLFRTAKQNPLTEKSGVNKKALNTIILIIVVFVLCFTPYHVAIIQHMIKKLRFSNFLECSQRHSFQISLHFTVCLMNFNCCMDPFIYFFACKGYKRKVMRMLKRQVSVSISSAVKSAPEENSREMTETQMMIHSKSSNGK

This assay has as its target EBI2 (Homo sapiens, UniProt P32249). The assay is described as follows: Cell-based luminescent assay (EBI2 modulation). The note with it: cell-based luminescence; 7a,25-OHC final assay concentration 80 nM; 60 minutes incubation; read-out: IC50. The method, boiled down:
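Cells plated overnight at 37° C, then exposed to compound at 4-5 uM final with 80 nM 7a,25-OHC agonist for 60 min at 37° C. Luminescence read after 60 min detection at 25° C in the dark; values normalized to neutral and stimulator controls and plate-pattern corrected.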
In the case of `CCCCN1CCN(C(=O)/C=C/c2ccc(Br)cc2)CC1` [Compound C49, (2E)-3-(4-bromophenyl)-1-(4-butylpiperazinyl)prop-2-en-1-one], the half-inhibitory concentration (IC50) was under 100 nM.

In the case of `O=C(C=Cc1ccc2c(c1)OCO2)N1CCN(Cc2ccc(F)cc2C(F)(F)F)CC1` [Compound C186, 3-(2H-benzo[3,4-d]1,3-dioxolan-5-yl)-1-(4-{[4-fluoro-2-(trifluoromethyl)phenyl]methyl}piperazinyl)prop-2-en-1-one], the half-inhibitory concentration (IC50) lay in the range of 500 to 5000 nM.

Regarding `O=C(c1ccc(C(F)(F)F)c(F)c1)N1CCN(C(=O)c2cc3cc(C(F)(F)F)ccc3[nH]2)CC1` [Compound C200, 4-{[3-fluoro-4-(trifluoromethyl)phenyl]carbonyl}piperazinyl 5-(trifluoromethyl)indol-2-yl ketone], the IC50 was under 100 nM.

Consider `O=C(/C=C/c1ccc(Br)cc1)N1CCN(S(=O)(=O)c2ccc(Br)cc2)CC1` [Compound C37, (2E)-3-(4-bromophenyl)-1-{4-[(4-bromophenyl)sulfonyl]piperazinyl}prop-2-en-1-one], for which the IC50 is under 100 nM.

As to “1-{4-[(4-methoxyphenyl)methyl]piperazinyl}-3-[4-(trifluoromethyl)phenyl]prop-2-yn-1-one [Compound C352]”, the half-maximal inhibitory concentration (IC50) is under 100 nM.

Regarding `O=C(c1ccc(I)cc1)N1CCN(C(=O)c2cc3cc(Cl)ccc3[nH]2)CC1` [Compound C115, 5-chloroindol-2-yl 4-[(4-iodophenyl)carbonyl]piperazinyl ketone], the IC50 is under 100 nM.

Consider “(2E)-1-{4-[(3-methoxyphenyl)methyl]piperazinyl}-3-phenylprop-2-en-1-one [Compound C379]”, for which the concentration for half-maximal inhibition (IC50) is under 100 nM.

`O=C(c1cc2cc(C(F)(F)F)ccc2[nH]1)N1CCN(C(=O)c2ccc(Cl)cc2Cl)CC1` [Compound C246, 4-[(2,4-dichlorophenyl)carbonyl]piperazinyl 5-(trifluoromethyl)indol-2-yl ketone]: the IC50 is under 100 nM.

With “1-[4-(diphenylmethyl)piperazinyl]-3-(4-bromo-2-fluorophenyl)prop-2-yn-1-one [Compound C107]”, the IC50 is under 100 nM.

In the case of `O=C(Nc1cccc(F)c1)N1CCN(C(=O)c2cc3cc(Cl)ccc3[nH]2)CC1` [Compound C451, {4-[(5-chloroindol-2-yl)carbonyl]piperazinyl}-N-(3-fluorophenyl)carboxamide], the half-maximal inhibitory concentration (IC50) lay within 100 to 500 nM.

Regarding `O=C(C#Cc1ccc(Cl)cc1)N1CCN(C(=O)c2ccc(Cl)cc2)CC1` [Compound C16, 3-(4-chlorophenyl)-1-{4-[(4-chlorophenyl)carbonyl]piperazinyl}prop-2-yn-1-one], the IC50 is under 100 nM.

On to `Cc1ccccc1/C=C/C(=O)N1CCN(S(=O)(=O)c2ccc(C(C)(C)C)cc2)CC1` [Compound C480, (2E)-1-(4-{[4-(tert-butyl)phenyl]sulfonyl}piperazinyl)-3-(2-methylphenyl)prop-2-en-1-one], for which the IC50 fell in the range of 100 to 500 nM.

With “4-(diphenylmethyl)piperazinyl 1-methylindol-5-yl ketone [Compound C433]”, the concentration for half-maximal inhibition (IC50) was in the range of 100 to 500 nM.

With `O=C(c1cc2cc(Br)ccc2[nH]1)N1CCN(C(=O)c2ccc(F)cc2C(F)(F)F)CC1` [Compound C208, 5-bromoindol-2-yl 4-{[4-fluoro-2-(trifluoromethyl)phenyl]carbonyl}piperazinyl ketone], the concentration for half-maximal inhibition (IC50) was under 100 nM.

Regarding `O=C(c1cc2ccccc2[nH]1)N1CCN(C(c2ccccc2)c2ccccc2)CC1` [Compound C71, 4-(diphenylmethyl)piperazinyl indol-2-yl ketone], the 50% inhibitory concentration (IC50) was under 100 nM.

For the molecule `O=C(/C=C/c1ccccc1C(F)(F)F)N1CCN(S(=O)(=O)c2ccc(Br)cc2)CC1` [Compound C277, (2E)-1-{4-[(4-bromophenyl)sulfonyl]piperazinyl}-3-[2-(trifluoromethyl)phenyl]prop-2-en-1-one], the IC50 was 100 to 500 nM.

As to `Cc1ccc(C(=O)N2CCN(C(=O)/C=C/c3ccc(Br)cc3)CC2)cc1` [Compound C4, (2E)-3-(4-bromophenyl)-1-{4-[(4-methylphenyl)carbonyl]piperazinyl} prop-2-en-1-one], the half-inhibitory concentration (IC50) was under 100 nM.

Take `Cc1ccc(S(=O)(=O)N2CCN(C(=O)/C=C/c3ccc(F)cc3)CC2)cc1` [Compound C124, (2E)-3-(4-fluorophenyl)-1-{4-[(4-methylphenyl)sulfonyl]piperazinyl}prop-2-en-1-one]: the IC50 was under 100 nM.

On to `O=C(c1cc2cc(Cl)ccc2[nH]1)N1CCC(N2CCOCC2)CC1` [Compound C199, 5-chloroindol-2-yl 4-morpholin-4-ylpiperidyl ketone], for which the IC50 lay in the range of 500 to 5000 nM.

Consider `O=C(/C=C/c1ccc(C(F)(F)F)cc1)N1CCN(C(=O)c2cc3cc(Cl)ccc3[nH]2)CC1` [Compound C218, (2E)-1-{4-[(5-chloroindol-2-yl)carbonyl]piperazinyl}-3-[4-(trifluoromethyl)phenyl]prop-2-en-1-one], for which the IC50 was under 100 nM.

Regarding `O=C(c1cc2cc(-c3ccccc3)ccc2[nH]1)N1CCN(C(c2ccccc2)c2ccccc2)CC1` [Compound C217, 4-(diphenylmethyl)piperazinyl 5-phenylindol-2-yl ketone], the IC50 was under 100 nM.

Consider “4-{[2-fluoro-4-(trifluoromethyl)phenyl]carbonyl}piperazinyl 5-(trifluoromethyl)indol-2-yl ketone [Compound C360]”, for which the concentration for half-maximal inhibition (IC50) is under 100 nM.

Take `Cc1ccc2[nH]c(C(=O)N3CCN(S(=O)(=O)/C=C/c4ccccc4)CC3)cc2c1` [Compound C48, 4-[((1E)-2-phenylvinyl)sulfonyl]piperazinyl 5-methylindol-2-yl ketone]: the IC50 is under 100 nM.

With `O=C(Nc1ccc(Cl)cc1)N1CCN(C(=O)c2cc3cc(Cl)ccc3[nH]2)CC1` [Compound C429, {4-[(5-chloroindol-2-yl)carbonyl]piperazinyl}-N-(4-chlorophenyl)carboxamide], the half-maximal inhibitory concentration (IC50) lay in the range of 100 to 500 nM.

Consider `O=C(C#Cc1cccc(Cl)c1)N1CCN(C(c2ccccc2)c2ccccc2)CC1` [Compound C92, 1-[4-(diphenylmethyl)piperazinyl]-3-(3-chlorophenyl)prop-2-yn-1-one], for which the IC50 is under 100 nM.

As to “5-methylindol-2-yl 4-benzylpiperazinyl ketone [Compound C376]”, the IC50 is under 100 nM.

With `CCN1CCN(C(=O)/C=C/c2ccc(Br)cc2)CC1` [Compound C222, (2E)-3-(4-bromophenyl)-1-(4-ethylpiperazinyl)prop-2-en-1-one], the IC50 was under 100 nM.

For `O=C(/C=C/c1ccc(Br)cc1)N1CCN(C(=O)c2cccc(B(O)O)c2)CC1` [Compound C267, (E)-(3-(4-(3-(4-bromophenyl)acryloyl)piperazine-1-carbonyl)phenyl)boronic acid], the half-inhibitory concentration (IC50) is under 100 nM.

As to `O=C(c1cc2cc(Cl)ccc2[nH]1)N1CCN(Cc2ccc(-c3ccccc3)cc2)CC1` [Compound C327, 5-chloroindol-2-yl 4-[(4-phenylphenyl)methyl]piperazinyl ketone], the half-inhibitory concentration (IC50) is under 100 nM.

On to `O=C(/C=C/c1cc(Br)ccc1F)N1CCN(C(c2ccccc2)c2ccccc2)CC1` [Compound C441, (2E)-1-[4-(diphenylmethyl)piperazinyl]-3-(5-bromo-2-fluorophenyl)prop-2-en-1-one], for which the IC50 is 100 to 500 nM.

With “1-{4-[(4-bromophenyl)carbonyl]piperazinyl}-3-(4-chlorophenyl)prop-2-yn-1-one [Compound C19]”, the 50% inhibitory concentration (IC50) was under 100 nM.
